# Test results reported in patent US11407744B2, “Compound and pharmaceutical composition comprising same” (AUTOPHAGYSCIENCES INC., priority 2018, dated 2022).
# Test system: LC3-II production in Hep3B cells
# Test: Autophagy activation: degree of LC3-II production in Hep3B cells (Western blot band density)
# Format: cell-based, human
# Conditions: 12 hours; for Autophagy-inducing capacity: amount of LC3-II increased by compound treatment relative to that of the Comparative Example (=1)
# Protocol: The degree of autophagy activation of each compound was evaluated by measuring the degree of LC3-II production in Hep3B cells.
# Specifically, Hep3B human hepatocytes were cultured in DMEM medium at 37° C. under 5% CO2 atmosphere. The respective cells were dispensed into 6-well plates at a density of 5×10^5 cells/well. These cells were treated with DMSO, the compound prepared in Examples described above, and the compound of Comparative Example, respectively, and then treated in DMEM medium at 37° C. under 5% CO2 atmosphere for 12 hours to induce autophagy. Subsequently, Hep3B cells were lysed with an extraction buffer containing protease inhibitor cocktail (PBS solution containing 0.5% Triton X-100, 1 mM Na3VO4, etc.), and then fragmentation of DNA was performed by sonication. The amount of protein was measured with bovine serum albumin as a protein standard using SMART™ BCA Protein Assay kit from iNtRON Biotechnology. After electrophoresis of 10˜50 μg of total cell protein in 8˜12% (w/v) polyacrylamide gel containing 0.1% SDS, the proteins present in a gel were transferred to PVDF membrane by an electroblotting technique. Then, in order to block non-specific binding, the PVDF membrane was placed in a TBS-tween (tris-buffered saline-tween, Sigma Co.) solution containing 5% non-fat dry milk and reacted at room temperature for 1 hour. The filter was placed in a TBS-tween solution containing a specific antibody against LC3 protein (Cell Signaling), allowed to stand at 4° C. for 12 hours, and then labeled with a secondary antibody labeled with HRP (Horseradish Peroxidase, Sigma Co., Cat No. P0889). Then, bands were measured using ECL (Enhanced Chemiluminescence, Thermo Scientific, Cat No. 34080).
# The induction of autophagy can be confirmed by an increase in specific LC3-II molecules. LC3 precursors are usually scattered in the cytoplasm, proteolytically cleaved, and present in the form of LC3-I. When autophagy is activated, the C-terminal glycine is modified to form LC3-II, which migrates to autophagosome and is distributed in puncta form.
# The amount of LC3-II increased by the compound treatment was quantified by measuring the band density, and then compared with the amount of LC3-II increased by the treatment of the compound of Comparative Example, and the comparison values are shown in Table 1.
Compound,Autophagy-inducing capacity,"increase in LC3-II (induction of autophagy), in words"
"O=C(Nc1cccnc1)c1ccc(-c2cccnc2)o1 [Example 58, N,5-di(pyridin-3-yl)furan-2-carboxamide]",1.10,–
"CC(C)NC(=O)c1ccc(-c2ccc3[nH]ccc3c2)s1 [Example 11, 5-(1H-indol-5-yl)-N-isopropylthiophene-2-carboxamide]",2.13,–
"CC(C)NC(=O)c1ccc(-c2cccc(O)c2)s1 [Example 4, 5-(3-hydroxyphenyl)-N-isopropylthiophene-2-carboxamide]",1.16,–
"CC(C)NC(=O)c1ccc(-c2cncc3ccccc23)o1 [Example 65, N-isopropyl-5-(isoquinolin-4-yl)furan-2-carboxamide]",1.66,–
"Cc1cc(C)cc(-c2ccc(C(=O)Nc3ccccc3)s2)c1 [Example 48, 5-(3,5-dimethylphenyl)-N-phenylthiophene-2-carboxamide]",1.46,–
"CCNC(=O)c1cccc(-c2ccc(C(=O)NC(C)C)o2)c1 [Example 92, 5-(3-(ethylcarbamoyl)phenyl)-N-isopropylfuran-2-carboxamide]",1.41,–
"CCNC(=O)c1ccc(-c2ccc(C(=O)NC(C)C)o2)cc1 [Example 93, 5-(4-(ethylcarbamoyl)phenyl)-N-isopropylfuran-2-carboxamide]",1.19,–
"O=C(Nc1cccnc1)c1ccc(-c2cccc(O)c2)o1 [Example 91, 5-(3-hydroxyphenyl)-N-(pyridin-3-yl)furan-2-carboxamide]",1.33,–
"CCOC(=O)c1ccc(-c2cnc3ccccc3c2)o1 [Example 88, ethyl 5-(quinolin-3-yl)furan-2-carboxylate]",1.02,–
"CC(C)NC(=O)c1ccc(-c2cccnc2)s1 [Example 7, N-isopropyl-5-(pyridin-3-yl)thiophene-2-carboxamide]",1.24,–
"Cc1ccc(-c2ccc(C(=O)NC(C)C)s2)c(C)c1 [Example 31, 5-(2,4-dimethylphenyl)-N-isopropylthiophene-2-carboxamide]",1.49,–
"Cc1cccc(-c2ccc(C(=O)NC(C)C)s2)c1 [Example 30, N-isopropyl-5-m-tolylthiophene-2-carboxamide]",1.02,–
"COc1ccc(-c2ccc(C(=O)NC(C)C)s2)cc1OC [Comparative Example, 5-(3,4-dimethoxyphenyl)-N-isopropylthiophene-2-carboxamide, reference compound]",1.00,Hep3B cells induce autophagy
"CCOC(=O)c1ccc(-c2ccc(C#N)cc2)o1 [Example 89, ethyl 5-(4-cyanophenyl)furan-2-carboxylate]",1.64,–
"CC(C)NC(=O)c1ccc(-c2cnc3ccccc3c2)s1 [Example 17, N-isopropyl-5-(quinolin-3-yl)thiophene-2-carboxamide]",1.99,–
"CC(C)NC(=O)c1ccc(-c2ccc(C(=O)NC(C)C)o2)cc1 [Example 94, N-isopropyl-5-(4-(isopropylcarbamoyl)phenyl)furan-2-carboxamide]",1.17,–
"Cc1cc(C)cc(-c2ccc(C(=O)NC(C)C)o2)c1 [Example 85, 5-(3,5-dimethylphenyl)-N-isopropylfuran-2-carboxamide]",1.09,–
"CC(C)NC(=O)c1ccc(-c2ccc(O)cc2)s1 [Example 5, 5-(4-hydroxyphenyl)-N-isopropylthiophene-2-carboxamide]",1.80,–
"Cc1cc(C)cc(-c2ccc(C(=O)NC(C)C)s2)c1 [Example 28, 5-(3,5-dimethylphenyl)-N-isopropylthiophene-2-carboxamide]",1.60,–
"COc1cc(-c2ccc(C(=O)NC(C)C)s2)ccc1O [Example 1, 5-(4-hydroxy-3-methoxyphenyl)-N-isopropylthiophene-2-carboxamide]",1.48,–
"COc1ccc(-c2ccc(C(=O)NC(C)C)s2)c(OC)n1 [Example 12, 5-(2,6-dimethoxypyridin-3-yl)-N-isopropylthiophene-2-carboxamide]",1.19,–
"CC(C)NC(=O)c1ccc(-c2cncc3ccccc23)s1 [Example 15, N-isopropyl-5-(isoquinolin-4-yl)thiophene-2-carboxamide]",1.50,–
"CC(C)OC(=O)c1ccc(-c2cccnc2)s1 [Example 72, isopropyl 5-(pyridin-3-yl)thiophene-2-carboxylate]",1.08,–
"CC(C)NC(=O)c1ccc(-c2cccc(N)c2)s1 [Example 18, 5-(3-aminophenyl)-N-isopropylthiophene-2-carboxamide]",1.13,–
"COc1ccc(-c2ccc(C(=O)NC(C)C)s2)cc1O [Example 2, 5-(3-hydroxy-4-methoxyphenyl)-N-isopropylthiophene-2-carboxamide]",1.38,–
"O=C(Nc1ccccc1)c1ccc(-c2cccnc2)s1 [Example 49, N-phenyl-5-(pyridin-3-yl)thiophene-2-carboxamide]",1.51,–
"CC(C)NC(=O)c1ccc(-c2ccc(F)c(F)c2)s1 [Example 27, 5-(3,4-difluorophenyl)-N-isopropylthiophene-2-carboxamide]",1.01,–
"COc1cc(-c2ccc(C(=O)NC(C)C)s2)cnc1N [Example 14, 5-(6-amino-5-methoxypyridin-3-yl)-N-isopropylthiophene-2-carboxamide]",1.13,–
